Assay: recombinant UMI read abundance after kanamycin selection (control-corrected) (log10(CPM+1)); higher = more efficient recombination; extreme values may be limits of the assay; sequences stand for … in AGTGCAGAGAAAATCGGCCAGTTTTCTCTGCCTGCAGTCCGCATGCCGTGGGACCCCTTGGGTTCTAACCTGTTGCCTAGATTTATGCAGCGGACTGCCTTTCTCCCAAAGTGATAAACCGG…AGGTTGGTTTCACT; site = the 11-nt donor
Outline: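 Under IPTG (0.07 mM) plus kanamycin, or without selection, Escherichia coli carrying a UMI-tagged donor and donor-binding-loop pair library and a target plasmid for the IS621 bridge recombinase were plated in two replicates. Recombinant UMIs were PCR-amplified across the donor–target junction and sequenced. Counts were converted to CPM, averaged over replicates, scaled by control-derived factors and reported as log10(CPM+1).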
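Note: IS621 bridge recombinase in Escherichia coli cells against a fixed T5 target plasmid.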

## GCGAACCCATGGACCGGTTTTCCCGGTAATCCGTATTTGAT (site GCGAACCCTAT)
  recombinant UMI read abundance (log10): 0.903

## GCGAACCCATGGACCGGTTTTCCCGGTAATCCGTATTTGGG (site GCGAAACCTCC)
  recombinant UMI read abundance (log10): 0.013

## GCGAACCCATGGACCGGTTTTCCCGGTAATCCGTATTTGGG (site GCGAACCCTCC)
  recombinant UMI read abundance (log10): 0.0373

## GCGAACCCATGGACCGGTTTTCCCGGTAATCCGTATTTGGG (site GCGAAGCCTCC)
  recombinant UMI read abundance (log10): 0.00885

## GCGAACCCATGGACCGGTTTTCCCGGTAATCCGTATTTGGG (site GCGAATCCTCC)
  recombinant UMI read abundance (log10): 0.0113

## GCGAAGACATGGACCGGTTTTCCCGGTAATCCGTATTTGCT (site GCGAAAACTAG)
  recombinant UMI read abundance (log10): 1.01

## GCGAAGACATGGACCGGTTTTCCCGGTAATCCGTATTTGCT (site GCGAACACTAG)
  recombinant UMI read abundance (log10): 0.298

## GCGAAGACATGGACCGGTTTTCCCGGTAATCCGTATTTGCT (site GCGAAGACTAG)
  recombinant UMI read abundance (log10): 1.92

## GCGAAGACATGGACCGGTTTTCCCGGTAATCCGTATTTGCT (site GCGAATACTAG)
  recombinant UMI read abundance (log10): 0

## GCGAAGACATGGACCGGTTTTCCCGGTAATCCGTATTTGGG (site GCGAAGACTCC)
  recombinant UMI read abundance (log10): 0.479

## GCGAAGACATGGACCGGTTTTCCCGGTAATCCGTATTTGGG (site GCGAAGCCTCC)
  recombinant UMI read abundance (log10): 0

## GCGAAGACATGGACCGGTTTTCCCGGTAATCCGTATTTGGG (site GCGAAGGCTCC)
  recombinant UMI read abundance (log10): 0.287

## GCGAAGACATGGACCGGTTTTCCCGGTAATCCGTATTTGGG (site GCGAAGTCTCC)
  recombinant UMI read abundance (log10): 0.439

## GCGAAGCCATGGACCGGTTTTCCCGGTAATCCGTATTTGGA (site GCGAAGCCTAC)
  recombinant UMI read abundance (log10): 0.00917

## GCGAAGCCATGGACCGGTTTTCCCGGTAATCCGTATTTGGA (site GCGAAGCCTCC)
  recombinant UMI read abundance (log10): 0.00526

## GCGAAGCCATGGACCGGTTTTCCCGGTAATCCGTATTTGGA (site GCGAAGCCTGC)
  recombinant UMI read abundance (log10): 0

## GCGAAGCCATGGACCGGTTTTCCCGGTAATCCGTATTTGGA (site GCGAAGCCTTC)
  recombinant UMI read abundance (log10): 0.24

## GCGAAGCCATGGACCGGTTTTCCCGGTAATCCGTATTTGGC (site GCGAAGCCTAC)
  recombinant UMI read abundance (log10): 0.0106

## GCGAAGCCATGGACCGGTTTTCCCGGTAATCCGTATTTGGC (site GCGAAGCCTCC)
  recombinant UMI read abundance (log10): 0

## GCGAAGCCATGGACCGGTTTTCCCGGTAATCCGTATTTGGC (site GCGAAGCCTGC)
  recombinant UMI read abundance (log10): 0

## GCGAAGCCATGGACCGGTTTTCCCGGTAATCCGTATTTGGC (site GCGAAGCCTTC)
  recombinant UMI read abundance (log10): 0.664

## GCGACACCATGGACCGGTTTTCCCGGTAATCCGTATTTGTC (site GCGACACCTGA)
  recombinant UMI read abundance (log10): 0

## GCGACATCATGGACCGGTTTTCCCGGTAATCCGTATTTGTG (site GCGACATCTCA)
  recombinant UMI read abundance (log10): 1.78

## GCGACCACATGGACCGGTTTTCCCGGTAATCCGTATTTGTT (site GCGACCACTAA)
  recombinant UMI read abundance (log10): 0.823

## GCGACGCCATGGACCGGTTTTCCCGGTAATCCGTATTTGTA (site GCAACGCCTTA)
  recombinant UMI read abundance (log10): 0.542

## GCGACGCCATGGACCGGTTTTCCCGGTAATCCGTATTTGTA (site GCCACGCCTTA)
  recombinant UMI read abundance (log10): 0.0222

## GCGACGCCATGGACCGGTTTTCCCGGTAATCCGTATTTGTA (site GCGACGCCTTA)
  recombinant UMI read abundance (log10): 0.398

## GCGACGCCATGGACCGGTTTTCCCGGTAATCCGTATTTGTA (site GCTACGCCTTA)
  recombinant UMI read abundance (log10): 0.019

## GCGACGGCATGGACCGGTTTTCCCGGTAATCCGTATTTGTC (site GCGACGGCTGA)
  recombinant UMI read abundance (log10): 1.84

## GCGAGCACATGGACCGGTTTTCCCGGTAATCCGTATTTGGC (site GCGAGCACTGC)
  recombinant UMI read abundance (log10): 3.27

## GCGAGCGCATGGACCGGTTTTCCCGGTAATCCGTATTTGTC (site GCGAGCGCTGA)
  recombinant UMI read abundance (log10): 2.69

## GCGAGGCCATGGACCGGTTTTCCCGGTAATCCGTATTTGGG (site GCGAAGCCTCC)
  recombinant UMI read abundance (log10): 0.0133

## GCGAGGCCATGGACCGGTTTTCCCGGTAATCCGTATTTGGG (site GCGACGCCTCC)
  recombinant UMI read abundance (log10): 0.022

## GCGAGGCCATGGACCGGTTTTCCCGGTAATCCGTATTTGGG (site GCGAGGCCTCC)
  recombinant UMI read abundance (log10): 0.0117

## GCGAGGCCATGGACCGGTTTTCCCGGTAATCCGTATTTGGG (site GCGATGCCTCC)
  recombinant UMI read abundance (log10): 0.0249

## GCGAGGGCATGGACCGGTTTTCCCGGTAATCCGTATTTGCC (site GCGAGGGCTGG)
  recombinant UMI read abundance (log10): 2.23

## GCGATAGCATGGACCGGTTTTCCCGGTAATCCGTATTTGTC (site GCGATAGCTGA)
  recombinant UMI read abundance (log10): 2.34

## GCGCCCACATGGACCGGTTTTCCCGGTAATCCGTATTTGGA (site GCGCCCACTTC)
  recombinant UMI read abundance (log10): 0.365

## GCGCGCACATGGACCGGTTTTCCCGGTAATCCGTATTTGCT (site GCGCGCACTAG)
  recombinant UMI read abundance (log10): 2.68

## GCGCTGACATGGACCGGTTTTCCCGGTAATCCGTATTTGAG (site GCGCTGACTCT)
  recombinant UMI read abundance (log10): 1.62

## GCGGAAACATGGACCGGTTTTCCCGGTAATCCGTATTTGCT (site GCGAAAACTAG)
  recombinant UMI read abundance (log10): 0

## GCGGAAACATGGACCGGTTTTCCCGGTAATCCGTATTTGCT (site GCGCAAACTAG)
  recombinant UMI read abundance (log10): 1.5

## GCGGAAACATGGACCGGTTTTCCCGGTAATCCGTATTTGCT (site GCGGAAACTAG)
  recombinant UMI read abundance (log10): 2.19

## GCGGAAACATGGACCGGTTTTCCCGGTAATCCGTATTTGCT (site GCGTAAACTAG)
  recombinant UMI read abundance (log10): 1.86

## GCGGAGGCATGGACCGGTTTTCCCGGTAATCCGTATTTGAA (site GCGGAGGCTTT)
  recombinant UMI read abundance (log10): 1.91

## GCGGTAACATGGACCGGTTTTCCCGGTAATCCGTATTTGAT (site GCGGTAACTAT)
  recombinant UMI read abundance (log10): 2.46

## GCGTAAACATGGACCGGTTTTCCCGGTAATCCGTATTTGCT (site GCGAAAACTAG)
  recombinant UMI read abundance (log10): 0

## GCGTAAACATGGACCGGTTTTCCCGGTAATCCGTATTTGCT (site GCGCAAACTAG)
  recombinant UMI read abundance (log10): 1.82

## GCGTAAACATGGACCGGTTTTCCCGGTAATCCGTATTTGCT (site GCGGAAACTAG)
  recombinant UMI read abundance (log10): 0.309

## GCGTAAACATGGACCGGTTTTCCCGGTAATCCGTATTTGCT (site GCGTAAACTAG)
  recombinant UMI read abundance (log10): 2.73

## GCGTACCCATGGACCGGTTTTCCCGGTAATCCGTATTTGAG (site GCGTACCCTCT)
  recombinant UMI read abundance (log10): 0.023

## GCGTACTCATGGACCGGTTTTCCCGGTAATCCGTATTTGAC (site GCGTACTCTGT)
  recombinant UMI read abundance (log10): 3.44

## GCGTCAACATGGACCGGTTTTCCCGGTAATCCGTATTTGGT (site GCGTCAACTAC)
  recombinant UMI read abundance (log10): 0.129

## GCGTTAGCATGGACCGGTTTTCCCGGTAATCCGTATTTGTG (site ACGTTAGCTCA)
  recombinant UMI read abundance (log10): 0.84

## GCGTTAGCATGGACCGGTTTTCCCGGTAATCCGTATTTGTG (site CCGTTAGCTCA)
  recombinant UMI read abundance (log10): 0.885

## GCGTTAGCATGGACCGGTTTTCCCGGTAATCCGTATTTGTG (site GCGTTAGCTCA)
  recombinant UMI read abundance (log10): 1.75

## GCGTTAGCATGGACCGGTTTTCCCGGTAATCCGTATTTGTG (site TCGTTAGCTCA)
  recombinant UMI read abundance (log10): 0.669

## GCGTTTCCATGGACCGGTTTTCCCGGTAATCCGTATTTGCT (site GCGTTTCCTAG)
  recombinant UMI read abundance (log10): 1.81

## GCTAAAGCATGGACCGGTTTTCCCGGTAATCCGTATTTGAT (site ACTAAAGCTAT)
  recombinant UMI read abundance (log10): 0.901

## GCTAAAGCATGGACCGGTTTTCCCGGTAATCCGTATTTGAT (site CCTAAAGCTAT)
  recombinant UMI read abundance (log10): 1.04

## GCTAAAGCATGGACCGGTTTTCCCGGTAATCCGTATTTGAT (site GCTAAAGCTAT)
  recombinant UMI read abundance (log10): 1.92

## GCTAAAGCATGGACCGGTTTTCCCGGTAATCCGTATTTGAT (site TCTAAAGCTAT)
  recombinant UMI read abundance (log10): 0.378

## GCTAATACATGGACCGGTTTTCCCGGTAATCCGTATTTGGC (site ACTAATACTGC)
  recombinant UMI read abundance (log10): 0

## GCTAATACATGGACCGGTTTTCCCGGTAATCCGTATTTGGC (site CCTAATACTGC)
  recombinant UMI read abundance (log10): 0.772

## GCTAATACATGGACCGGTTTTCCCGGTAATCCGTATTTGGC (site GCTAATACTGC)
  recombinant UMI read abundance (log10): 0.0276

## GCTAATACATGGACCGGTTTTCCCGGTAATCCGTATTTGGC (site TCTAATACTGC)
  recombinant UMI read abundance (log10): 0.548

## GCTACAACATGGACCGGTTTTCCCGGTAATCCGTATTTGAG (site GCTACAACTCT)
  recombinant UMI read abundance (log10): 0.921

## GCTACGCCATGGACCGGTTTTCCCGGTAATCCGTATTTGCG (site GCTACGCCTCG)
  recombinant UMI read abundance (log10): 0.00779

## GCTACTGCATGGACCGGTTTTCCCGGTAATCCGTATTTGAG (site GCTACTGCTCT)
  recombinant UMI read abundance (log10): 1.49

## GCTACTGCATGGACCGGTTTTCCCGGTAATCCGTATTTGCC (site ACTACTGCTGG)
  recombinant UMI read abundance (log10): 1.44

## GCTACTGCATGGACCGGTTTTCCCGGTAATCCGTATTTGCC (site CCTACTGCTGG)
  recombinant UMI read abundance (log10): 0.983

## GCTACTGCATGGACCGGTTTTCCCGGTAATCCGTATTTGCC (site GATACTGCTGG)
  recombinant UMI read abundance (log10): 0

## GCTACTGCATGGACCGGTTTTCCCGGTAATCCGTATTTGCC (site GCAACTGCTGG)
  recombinant UMI read abundance (log10): 0

## GCTACTGCATGGACCGGTTTTCCCGGTAATCCGTATTTGCC (site GCCACTGCTGG)
  recombinant UMI read abundance (log10): 0.445

## GCTACTGCATGGACCGGTTTTCCCGGTAATCCGTATTTGCC (site GCGACTGCTGG)
  recombinant UMI read abundance (log10): 0

Source: the supplement of paper PMC11208160
